Assay results published in patent publication US20210381022A1, “INTEGRATED DRUG DISCOVERY PLATFORM FOR INBORN ERROR OF METABOLISM DISORDERS” (RAMOT AT TEL-AVIV UNIVERSITY LTD., priority 2018, published 2021).

Key:
[1] = tested on: ADA deficient LCLs; experiment: LCLs survival assay (XTT), ADA deficient LCLs; type: cell-based, human
Procedure: (§1) 24 hours after seeding in 96 round bottom plates in full medium cells were washed once with medium without serum and placed in medium without serum. Following 72 hours of incubation with or without Adenosine (200 ug/ml) and with or without purpurin (2 uM), XTT based cell viability assay was performed. Absorbance was measured with Tecan™ SPARK 10M plate reader.
(§2) In order to assess the toxic effect of adenosine aggregates, XTT based cell viability assays were performed on healthy and ADA deficient LCLs. Cells went through similar procedure as described above except adenosine was at 300 μg/ml. Survival percentage was calculated as absorbance with adenosine divided by absorbance without adenosine. […] Moreover. 4 out of 5 ADA deficient cell lines display less than 20% survival (FIG. 15B cell lines 7,8,9,11,12).

[2] = tested on: mutant yeast strain; experiment: IC50 assay in yeast, rescue from adenine toxicity (HTS growth format); type: cell-based; details: Saccharomyces cerevisiae, 22 h, read-out: IC50, rescuing mutant yeast strain from adenine toxicity
Procedure: Yeast strains were grown over night at 30° C. in SD medium without adenine and were diluted to OD600 0.005. 80 μL of cells were platted on 384 wells plates and incubated at 30° C. for 22 hours with continuous shaking. OD600 was measured using Tecan™ SPARK 10M plate reader.
Yeast strains were diluted to OD600 0.005. 80 μL of cells were platted on 384 wells plates. Compounds were added with Tecan™ D300 printer at relevant concentrations and plates were incubated at 30° C. for 22 hours with continuous shaking. OD600 was measured using Tecan™ SPARK 10M plate reader. IC50 calculations were performed with CDD software.
The high-throughput screening was calibrated for 384 plate format using phenotypic assay based on yeast growth rate (measured by OD). The goal was to find hit compounds that will dramatically improve the growth rate as compared to the salvage mutant in the presence of adenine. All relevant controls were used including: mutant yeast grown without adenine addition, WT yeast, and mutant yeast in the presence of adenine with Prazosin as a positive control compound. Potential hits were selected after calculations of growth curve slopes and area under the curve during the logarithmic phase. After hit validation and dose response experiments, hits displaying low IC50 rates were selected implying on a good potential for some of the compounds (FIG. 14).

[3] = tested on: adenine fibrils; experiment: ThT assay of adenine self-assembly inhibition in vitro; details: adenine 8 mg/ml in PBS with inhibitor
Procedure: Adenine was dissolved at 90° C. in PBS to a final concentration of 8 mg/ml and mixed with the indicated inhibitor, at the indicated concentrations, or with PBS as a control, followed by addition of ThT in PBS. ThT emission data at 480 nm (excitation at 450 nm) were measured at the end point.
Adenine was dissolved to a final concentration of 8 mg/ml at 90° C. in PBS. The solution was plated on a 96-well black plate and mixed with the inhibitor baicalein at the stated concentration, and with 20 μm ThT (final concentration). Fluorescence (excitation at 450 nm, emission at 480 nm) was recorded over time using a Tecan™ Infinite® 200 PRO plate reader. Data processing was performed using the OriginLab software.
To further examine if the compounds specifically target the adenosine amyloid-like structures. the compounds were tested using adenine in-vitro aggregation assay. Adenine was self-assembled with and without the inhibitors and stained with the amyloids dye, Thioflavin T (ThT). […] More specifically. Adenosine (30 mg/mL) and guanosine (3 mg/ml) were dissolved in PBS at 90° C., followed by the addition of ThT at final concentration of 20 μM. ThT emission data at 480 nm (excitation at 450 nm) was measured over time. TEM images show elongated adenosine fibrils (10 mg/mL) and guanosine fibrils (1 mg/mL) (FIGS. 34A and 34B, respectively). ThT fluorescence assay of adenosine and guanosine assemblies, are shown by FIGS. 34C, and 34D respectively.

[4] = tested on: adenosine aggregates in ADA deficient LCLs; experiment: Aggregation assay (Proteostat, FACS) on ADA deficient LCLs; type: cell-based, human; details: for formation of adenosine aggregates (aggregation level, Proteostat staining): patient derived lymphoblastoids, 19 concentrations from 50 μM to 0.003 μM
Procedure: 24 hours after seeding in full medium cells were washed with medium without serum and placed in medium without serum. Following 72 hours of incubation with or without Adenosine (A9251 SIGMA) (200 ug/ml), cells were washed with PBS and stained for adenosine aggregates with Proteostat dye (ENZ-51023-KP002). Proteostat concentration was 1:3000 of diluted stock. Following 15 minutes' incubation, cells were washed with PBS and mean fluorescence was measured with FACS.
Cells were treated with adenosine alone or with adenosine with compounds. Compound activity was tested in 19 concentrations in range from 50 uM to 0.003 uM.
Readouts: Proteostat Fluorescence intensity was measured with FACS at 2 excitation wavelengths: 488 nm and 550 nm. Emission wavelength was 600 nm.
24 hours after seeding in 96 round bottom plates in full medium cells were washed once with medium without serum and placed in medium without serum. Following 72 hours of incubation with or without Adenosine (200 ug/ml) and with or without purpurin (2 uM), cells were washed once with PBS and stained for adenosine aggregates with Proteostat dye (Enzo Life Sciences). Proteostat concentration was 1:4000 of diluted stock. Following 15 minutes incubation, cells were washed with PBS and mean flow cytometry was preformed using Stratedigm S1000EXi and the CellCapTure software (Stratedigm, San Jose, Calif.). Analyses were performed using FlowJo software (TreeStar, version 10).
For quantification of intracellular adenosine aggregates by FACS analyses, 100,000 cells were seeded in 96 well plates in full medium. After 24 hours, cells were centrifuged, washed once and added with serum free medium with or without Adenosine (200 μg/ml). After incubation of 72 hours cells were washed with PBS and stained for adenosine aggregates with Proteostat dye. Following 15 minutes incubation, cells were washed with PBS and mean fluorescence was measured with FACS. Mean cell fluorescence of every cell line was normalized to its signal without adenosine and data is presented as percentage of aggregates.

[5] = tested on: healthy LCLs; experiment: LCLs survival assay (XTT), healthy LCLs; type: cell-based, human; details: adenosine 300 μg/ml
Procedure: as §1, §2

[6] = tested on: adenine fibrils; details: previously demonstrated, reference [4]; cited from earlier work
[7] = tested on: aah1Δapt1Δ strain; experiment: Yeast growth assay of adenine salvage mutant with adenine feeding; type: cell-based, Saccharomyces cerevisiae
Procedure: (§3) Strains were grown over night at 30° C. in SD medium without adenine. For spotting assays, strains were diluted to 6.25*10^7 cells/mL and were then 5-fold serially diluted and spotted on SD media with the indicated concentrations of adenine or TA (Sigma-Aldrich). Plates were incubated at 30° C. for 2 days. […] For OD600 measurements, strains were diluted to OD600 0.01, 200 μL of cells were platted on 96 wells plates and incubated at 30° C. for 25 hours with continuous shaking. OD600 was measured using Tecan™ SPARK 10M plate reader.
For the percentage of growth analysis (FIG. 10B and FIG. 13A), OD600 was measured when cells reached log phase. The percentage of growth represents the growth with TA compared to the growth without TA.

[8] = tested on: cys4Δ strain; experiment: Yeast growth assay of cys4Δ mutant with homocysteine; type: cell-based, Saccharomyces cerevisiae; details: 13 mg/L cysteine, 80 mg/L homocysteine, 0.3 mM TA
Procedure: FIG. 27E: WT and cys4Δ strains diluted to OD600 0.01 were grown in SD media containing 13 mg/L cysteine and 80 mg/L homocysteine in the under the indicated conditions. 0.3 mM TA was added to the samples at different OD600. The percentage of growth represents the growth the indicated condition compared to the growth of WT without TA. *P<0.05 (Student's t-test).
Homocystinuria results from cystathionine beta synthase (CBS) deficiency, leading to excess of Hcy. A knockout mutation in CYS4, the highly-conserved functional yeast ortholog of the human cystathionine beta synthase (CBS) known to be essential for Hcy salvage, was therefore generated. Due to the contribution of this enzyme to cysteine biosynthesis, it was first shown that its absence confers cysteine dependence (FIG. 27A). […] To examine whether the observed toxicity was associated with the in vivo formation of amyloid-like assemblies, the cells were stained with the amyloid-specific fluorescent dye ProteoStat which allows to detect intracellular amyloid fibrils. […] Next, to further establish the amyloid-like nature of the aggregates, the fibrillation-modifying polyphenolic compound tannic acid (TA) was used (FIG. 27E).

[9] = tested on: aah1Δapt1Δ cells; experiment: Confocal microscopy with ProteoStat staining of salvage mutant; type: cell-based, Saccharomyces cerevisiae; details: adenine in media, TA 0.5 mM
Procedure: An amount of 1 mL of logarithmic cells were washed with PBS buffer, sonicated using 15 s pulses at 20% power and resuspended in 50 μL of ProtesoStat dye diluted 1:250 in ProteoStat assay buffer. Cells were incubated for 15 min at room temperature protected from light. 10 μL of each sample was deposited on poly-lysine coated glass slides (Sigma-Aldrich). Cells were imaged using Leica TCS SP8 laser confocal microscope with 63×1.4 NA or 100*1.4 NA oil objectives. To visualize the nuclei, Hoechst (33342; ImmunoChimestry) was used. An argon laser with 488 excitation line was used for ProteoStat (emission wavelength, 500 to 600 nm), and a 405 UV laser was used to excite Hoechst fluorescence (emission wavelength, 415 to 450 nm).

[10] = tested on: aah1Δapt1Δ cells; experiment: LC-MS detection of TA and adenine inside cells; type: cell-based, Saccharomyces cerevisiae; details: cells grown in SD medium containing adenine and TA
Procedure: 100 ml of cells at the logarithmic phase were centrifuged and washed three times with PBS. 1 ml of the growth medium and of each wash were collected for LC-MS analysis. After the third wash, the pellet was resuspended in PBS together with acid-washed glass beads. Tubes were vortexed for 45 minutes in 4° C. using disruptor-genie. Cell debris and soluble material were separated by centrifugation. Both fractions as well as the medium and washes were analyzed by MS. The pellet was resuspended in 200 μl DMSO, heated for 5 minutes at 85° C. and sonicated for 5 minutes at 40° C. The lysis mixture was centrifuged at 6000 rpm for 10 minutes. 150 μl of the lysate were transferred to a Waters 96 well ACQUITY collection plate for LC-MS analysis. 20 μl of each sample were injected to Waters Autopurification system analytical module equipped with SQD2 MS detector at the following conditions: a. LC: Waters XSelect Peptide CSH C18 column (5 μm, 4.6 mm×100 mm) using a 10 minute gradient from 95:5 Water:acetonitrile (both with 0.1% formic acid) to acetonitrile (0.1% formic acid); b. MS: acquisition parameters were optimized in order to select the proper ion for selected ion monitoring (SIR) experiments.

[11] = tested on: wild-type strain; experiment: Yeast growth assay of wild-type strain; type: cell-based, Saccharomyces cerevisiae; details: 13 mg/L cysteine, 80 mg/L homocysteine, 0.3 mM TA
Procedure: as §3

[12] = tested on: phenylalanine assemblies; details: reference [4]; cited from earlier work
[13] = tested on: adenine aggregation in aah1Δapt1Δ cells; experiment: Flow cytometry with ProteoStat staining of salvage mutant; type: cell-based, Saccharomyces cerevisiae; details: adenine in media, TA 0.5 mM
Procedure: An amount of 1 mL of logarithmic cells were washed with PBS buffer and sonicated using 15 s pulses at 20% power. For each sample, 2*10^6 cells were resuspended with ProteoStat dye (Enzo Life Sciences) diluted 1:3000 in ProteoStat assay buffer. Cells were incubated for 15 min at room temperature protected from light. Flow cytometry was preformed using Stratedigm S1000EXi and the CellCapTure software (Stratedigm, San Jose, Calif.). Live cells were gated (P1) by forward scatter and side scatter. Fluorescence channels for FITC (530/30) and PE-Cy5 (676/29) were used utilizing a 488 nm laser source. A total of 50,000 events were acquired for each sample. Analyses were performed using FlowJo software (TreeStar, version 10).

O=C1c2ccccc2C(=O)c2c(O)c(O)cc(O)c21 [Purpurin, 1,2,4-trihydroxyanthracene-9,10-dione]
cell viability (XTT) ([1]; 2 μM Purpurin, with adenosine, 72 hours, vs control LCLs): substantial improvement in cell viability | IC50 [2]: 14.4 nM | amyloids staining (ThT, end point) [3]: significantly reduced the amyloids staining | Proteostat staining of adenosine aggregates ([4]; 2 μM Purpurin, adenosine 200 μg/ml, 72 hours): reduced to significantly lower levels | formation of adenosine aggregates (aggregation level, Proteostat staining) [4]: significantly reduce the aggregation level | formation of adenosine aggregates (aggregation level, Proteostat staining) ([4]; listed as purpurin): inhibited the formation of these aggregates

Nc1ncnc2c1ncn2[C@@H]1O[C@H](CO)[C@@H](O)[C@H]1O [adenosine, Adenosine]
survival of ADA deficient LCLs in the presence of adenosine ([1]; adenosine 300 μg/ml, XTT): below 40% | survival, 4 out of 5 ADA deficient cell lines ([1]; adenosine 300 μg/ml, XTT): less than 20% | survival of healthy LCLs in the presence of adenosine [5]: above 70% | Proteostat staining of ADA deficient LCLs compared to healthy LCLs ([4]; adenosine 200 μg/ml, 72 hours): 2-3 fold

O=C(OC[C@H]1O[C@@H](OC(=O)c2cc(O)c(O)c(OC(=O)c3cc(O)c(O)c(O)c3)c2)[C@H](OC(=O)c2cc(O)c(O)c(OC(=O)c3cc(O)c(O)c(O)c3)c2)[C@@H](OC(=O)c2cc(O)c(O)c(OC(=O)c3cc(O)c(O)c(O)c3)c2)[C@@H]1OC(=O)c1cc(O)c(O)c(OC(=O)c2cc(O)c(O)c(O)c2)c1)c1cc(O)c(O)c(OC(=O)c2cc(O)c(O)c(O)c2)c1 [TA, Tannic acid]
adenine self-assembly in vitro [6]: inhibition of adenine self-assembly in vitro | formation of adenine amyloid-like assemblies / growth, inhibitor added at earlier time points ([7]; 0.5 mM TA added at earlier time points of yeast growth): hinder the formation of adenine amyloid-like assemblies | growth, inhibitor added at later stages ([7]; 0.5 mM TA added at later stages of yeast growth): no effect on their growth | cell growth of the salvage mutant ([7]; in the presence of adenine, TA added to the yeast media at various concentrations): clearly improved cell growth of the salvage mutant in a dose-dependent manner | growth inhibition of the salvage mutant strain in the presence of Hcy [8]: significantly ameliorated the growth inhibition | ProteoStat stained dots (confocal microscopy) [9]: absence of the stained dots | presence inside the cell (LC-MS) [10]: detected inside the cell | growth of wild-type strain [11]: no effect was observed | phenylalanine aggregation and cytotoxicity of the assemblies in vitro [12]: counteract | metabolite aggregation (ProteoStat, flow cytometry) [13]: decrease in metabolite aggregation
